Measurements taken from patent publication US5143927A, “3-(thiazolidone, oxazolidinone, imidazolidinone)-indoles as antiinflammatory agents” (Warner-Lambert Company, priority 1991, dated 1992).
Read-outs that look alike come from different tables or passages of the source.

Tests used:
cyclooxygenase = biological target: T1, cyclooxygenase (Rattus norvegicus, UniProt Q63921); test: ARBC whole cell cyclooxygenase assay (inhibition of PGF2α formation in RBL-1 cells); assay type: cell-based; conditions: for IC50: A23187 (5 μM) stimulated, PGF2α formation, read-out: ARBC, inhibition of PGF2, IC50; for inhibition at 10 µM: A23187 stimulated, read-out: ARBC, inhibition of PGF2
T1 construct: endogenous in cells; host or cells: RBL-1 (rat basophilic leukemia cells, from the American Type Culture Collection)
T1 sequence (Q63921 27-602): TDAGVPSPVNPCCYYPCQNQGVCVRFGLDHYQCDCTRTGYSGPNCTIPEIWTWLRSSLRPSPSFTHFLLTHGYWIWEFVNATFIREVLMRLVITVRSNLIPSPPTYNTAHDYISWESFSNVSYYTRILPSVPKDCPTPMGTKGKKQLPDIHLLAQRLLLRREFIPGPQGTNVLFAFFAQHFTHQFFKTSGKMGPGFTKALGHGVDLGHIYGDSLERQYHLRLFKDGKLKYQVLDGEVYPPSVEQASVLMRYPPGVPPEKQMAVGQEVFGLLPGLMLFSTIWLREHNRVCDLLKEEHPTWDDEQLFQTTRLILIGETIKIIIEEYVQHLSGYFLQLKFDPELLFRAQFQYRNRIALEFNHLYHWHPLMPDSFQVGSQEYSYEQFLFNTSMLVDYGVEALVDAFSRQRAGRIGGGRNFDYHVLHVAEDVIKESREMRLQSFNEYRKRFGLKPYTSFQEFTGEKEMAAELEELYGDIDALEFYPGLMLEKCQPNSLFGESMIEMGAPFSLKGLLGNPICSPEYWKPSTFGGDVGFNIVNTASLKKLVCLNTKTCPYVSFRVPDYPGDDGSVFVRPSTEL
Experimental: (§1) ARBL/ARBC WHOLE CELL 5-LIPOXYGENASE AND CYCLOOXYGENASE ASSAYS
(§2) The rat basophilic leukemia cell line (RBL-1) was obtained from the American Type Culture Collection (Rockville, Md.).
(§3) Radioimmunoassay (RIA) kits of LTB4 and PGF2α were obtained from Amersham (Arlington Heights, Ill.) and Seragen (Boston, Mass.), respectively.
(§4) RBL-1 cells are grown in suspension culture in Eagle's minimum essential medium supplemented with 12% fetal bovine serum at 37° C. in an incubator supplied with air 5% carbon dioxide. Cells are harvested by centrifugation. They are washed with cold phosphate buffered saline, pH 7.4 (PBS; NaCl, 7.1 g; Na2 HPO4, 1.15 g; KH2 PO4, 0.2 g; and KCl, 0.2 g/L). Cells are finally suspended in PBS containing 1.0 mM calcium at a density of 2×10^6 cells/mL. Cells are incubated […] test agent (in DMSO) (1% DMSO is without effect on arachidonic acid metabolism) for 10 minutes at room temperature. Calcium ionophore A23187 (5 μM) is added and cells are incubated for 7 minutes at 37° C. The reaction is stopped by chilling the tubes on ice for 10 minutes. Cells are separated by centrifugation and the supernatant is stored at -20° C. Aliquots (100 μL) are analyzed for LTB4 and PGF2α using radioimmunoassay kits as provided by the supplier.
(§5) Table 1 contains biochemical data for compounds of formula I obtained from this whole cell assay as amount of inhibition at 10 μM or IC50 s which are calculated as the concentration of a test compound in micromoles (μM) causing 50% inhibition of LTB4 or PGF2α formation.

5-lipoxygenase = biological target: T2, 5-lipoxygenase (Rattus norvegicus, UniProt P12527); test: ARBL whole cell 5-lipoxygenase assay (inhibition of LTB4 formation in RBL-1 cells); assay type: cell-based; conditions: for IC50: A23187 (5 μM) stimulated, LTB4 formation; for inhibition at 10 µM: A23187 stimulated
T2 construct: endogenous in cells; host or cells: RBL-1 (rat basophilic leukemia cells, from the American Type Culture Collection)
T2 sequence (P12527 1-673): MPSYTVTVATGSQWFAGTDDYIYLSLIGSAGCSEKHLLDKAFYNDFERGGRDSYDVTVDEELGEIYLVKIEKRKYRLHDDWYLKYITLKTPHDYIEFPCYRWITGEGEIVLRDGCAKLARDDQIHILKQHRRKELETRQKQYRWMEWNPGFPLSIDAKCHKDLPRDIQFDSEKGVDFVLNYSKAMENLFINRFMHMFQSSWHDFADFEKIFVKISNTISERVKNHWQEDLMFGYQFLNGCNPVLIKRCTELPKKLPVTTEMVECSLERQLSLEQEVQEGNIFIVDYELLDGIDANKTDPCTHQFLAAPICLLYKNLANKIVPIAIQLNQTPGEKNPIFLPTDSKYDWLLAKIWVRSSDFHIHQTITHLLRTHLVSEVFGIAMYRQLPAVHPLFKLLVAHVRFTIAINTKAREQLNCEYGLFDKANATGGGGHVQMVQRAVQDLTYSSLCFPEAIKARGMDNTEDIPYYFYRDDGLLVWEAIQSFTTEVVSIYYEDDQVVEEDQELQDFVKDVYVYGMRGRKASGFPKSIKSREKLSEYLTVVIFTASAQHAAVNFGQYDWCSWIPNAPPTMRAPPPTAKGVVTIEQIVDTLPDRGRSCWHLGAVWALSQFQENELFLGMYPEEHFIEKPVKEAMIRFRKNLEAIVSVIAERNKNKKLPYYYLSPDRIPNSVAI
Experimental: as §1, §2, §3, §4, §5

Row | SMILES | IC50 (cyclooxygenase) [µM] | IC50 (5-lipoxygenase) [µM] | inhibition at 10 µM (cyclooxygenase; class symbol, 10 μM) [%] | inhibition at 10 µM (5-lipoxygenase; inhibition at 10 μM) [%] | also measured
1 | COc1ccc2[nH]c(C)c(/C=C3\SC(SC)=NC3=O)c2c1 [Example 1, (Z) -5-[(5 -Methoxy-2-methyl-1H -indol-3-yl)methylene]-2-(methylthio)-4(5H)-thiazolone] | 0.29 | 8.23 |  |  | 
2 | COc1ccc2[nH]c(C)c(/C=C3\SC(NC#N)=NC3=O)c2c1 [Example 2, (Z)-[4,5-Dihydro-5-[(5-methoxy-2-methyl-1H-indol-3-yl)methylene]-4-oxo-2-thiazolyl]-cyanamide] |  |  | < 40 |  | inhibition at 10 µM (5-lipoxygenase; class symbol, 10 μM): < 40%
3 | CSC1=NC(=O)/C(=C/c2c(C)[nH]c3ccccc23)S1 [Example 3, (Z) -5-[(2-Methyl-1H-indol-3-yl)methylene]-2-(methylthio)-4(5H)-thiazolone] | 0.14 | 4.43 |  |  | 

Further lines, with some results ahead:

Row | IC50 (cyclooxygenase) [µM] | IC50 (5-lipoxygenase) [µM] | inhibition at 10 µM (cyclooxygenase; class symbol, 10 μM) [%] | inhibition at 10 µM (5-lipoxygenase; inhibition at 10 μM) [%] | SMILES | also measured
4 |  |  |  | 90 | COc1ccc2c(c1)c(/C=C1\SC(=S)N(CC(=O)O)C1=O)c(C)n2C(=O)c1ccc(Cl)cc1 [Example 4, (Z)-5-[[1-(4-Chlorobenzoyl)-5-methoxy-2-methyl-1H-indol-3-yl]methylene]-4-oxo-2-thioxo-3-thiazolidine acetic acid] | inhibition at 10 µM (cyclooxygenase; inhibition at 10 μM): 60%
5 |  |  | < 40 | 48 | COc1ccc2c(c1)c(/C=C1\SC(N)=NC1=O)c(C)n2C(=O)c1ccc(Cl)cc1 [Example 5, (Z)-5-[[1-(4-Chlorobenzoyl)-5-methoxy-2-methyl-1H-indol-3-yl]methylene]-2-imino-4-thiazolidinone] | 
